In patent US10168342B2, “Lipid probes and uses thereof” (THE SCRIPPS RESEARCH INSTITUTE, priority 2015, dated 2019):

Experiments:
Experiment in all cases: SILAC MS mapping of lipid probe targets (probe-versus-No UV, probe-versus-probe) in Neuro2a cells
Type in all cases: cell-based
[1] = target: T1, lipid-binding proteins in Neuro2a cells (Mus musculus, UniProt Q9Z0R9); conditions: AEA-DA probe vs NoUV
T1 construct: endogenous in cells; host or cells: Neuro2a

[2] = target: T2, lipid-binding proteins in Neuro2a cells (Mus musculus, UniProt Q8BIJ6); conditions: protein Iars2, AEA-DA probe, No UV control
T2 construct: endogenous in cells; host or cells: Neuro2a

[3] = target: T3, lipid-binding proteins in Neuro2a cells (Mus musculus, UniProt Q91VM5); conditions: protein Rbmxl1, AEA-DA probe, No UV control
T3 construct: endogenous in cells; host or cells: Neuro2a

[4] = target: T4, lipid-binding proteins in Neuro2a cells (Mus musculus, UniProt O08579); conditions: AEA-DA probe vs NoUV
T4 construct: endogenous in cells; host or cells: Neuro2a

[5] = target: T5, lipid-binding proteins in Neuro2a cells (Mus musculus, UniProt Q8VCX5); conditions: protein Micu1, AEA-DA probe, No UV control
T5 construct: endogenous in cells; host or cells: Neuro2a

[6] = target: T6, lipid-binding proteins in Neuro2a cells (Mus musculus, UniProt Q8VCB1); conditions: AEA-DA probe vs NoUV
T6 construct: endogenous in cells; host or cells: Neuro2a

[7] = target: T7, lipid-binding proteins in Neuro2a cells (Mus musculus, UniProt Q61207); conditions: AEA-DA probe vs NoUV
T7 construct: endogenous in cells; host or cells: Neuro2a

[8] = target: T8, lipid-binding proteins in Neuro2a cells (Mus musculus, UniProt Q8BHC4); conditions: AEA-DA probe vs NoUV
T8 construct: endogenous in cells; host or cells: Neuro2a

[9] = target: T9, lipid-binding proteins in Neuro2a cells (Mus musculus, UniProt Q924D0); conditions: protein Rtn4ip1, AEA-DA probe, No UV control
T9 construct: endogenous in cells; host or cells: Neuro2a

[10] = target: T10, lipid-binding proteins in Neuro2a cells (Mus musculus, UniProt Q3KNM2); conditions: AEA-DA probe vs NoUV
T10 construct: endogenous in cells; host or cells: Neuro2a

[11] = target: T11, lipid-binding proteins in Neuro2a cells (Mus musculus, UniProt Q9CQ85); conditions: AEA-DA probe vs NoUV
T11 construct: endogenous in cells; host or cells: Neuro2a

[12] = target: T12, lipid-binding proteins in Neuro2a cells (Mus musculus, UniProt O70503); conditions: AEA-DA probe vs NoUV
T12 construct: endogenous in cells; host or cells: Neuro2a

[13] = target: T13, lipid-binding proteins in Neuro2a cells (Mus musculus, UniProt Q8BJ03); conditions: protein Cox15, AEA-DA probe, No UV control
T13 construct: endogenous in cells; host or cells: Neuro2a

[14] = target: T14, lipid-binding proteins in Neuro2a cells (Mus musculus, UniProt P45878); conditions: protein Fkbp2, AEA-DA probe, No UV control
T14 construct: endogenous in cells; host or cells: Neuro2a

[15] = target: T15, lipid-binding proteins in Neuro2a cells (Mus musculus, UniProt Q99JY4); conditions: AEA-DA probe vs NoUV
T15 construct: endogenous in cells; host or cells: Neuro2a

[16] = target: T16, lipid-binding proteins in Neuro2a cells (Mus musculus, UniProt Q99KJ8); conditions: protein Dctn2, AEA-DA probe, No UV control
T16 construct: endogenous in cells; host or cells: Neuro2a

[17] = target: T17, lipid-binding proteins in Neuro2a cells (Mus musculus, UniProt Q91V01); conditions: AEA-DA probe vs NoUV
T17 construct: endogenous in cells; host or cells: Neuro2a

[18] = target: T18, lipid-binding proteins in Neuro2a cells (Mus musculus, UniProt Q505D7); conditions: AEA-DA probe vs NoUV
T18 construct: endogenous in cells; host or cells: Neuro2a

[19] = target: T19, lipid-binding proteins in Neuro2a cells (Mus musculus, UniProt Q60932); conditions: AEA-DA probe vs NoUV
T19 construct: endogenous in cells; host or cells: Neuro2a

[20] = target: T20, lipid-binding proteins in Neuro2a cells (Mus musculus, UniProt Q9R1J0); conditions: AEA-DA probe vs NoUV
T20 construct: endogenous in cells; host or cells: Neuro2a

[21] = target: T21, lipid-binding proteins in Neuro2a cells (Mus musculus, UniProt Q8R0X7); conditions: AEA-DA probe vs NoUV
T21 construct: endogenous in cells; host or cells: Neuro2a

[22] = target: T22, lipid-binding proteins in Neuro2a cells (Mus musculus, UniProt Q924Z4); conditions: AEA-DA probe vs NoUV
T22 construct: endogenous in cells; host or cells: Neuro2a

T20 sequence (Q9R1J0 whole entry): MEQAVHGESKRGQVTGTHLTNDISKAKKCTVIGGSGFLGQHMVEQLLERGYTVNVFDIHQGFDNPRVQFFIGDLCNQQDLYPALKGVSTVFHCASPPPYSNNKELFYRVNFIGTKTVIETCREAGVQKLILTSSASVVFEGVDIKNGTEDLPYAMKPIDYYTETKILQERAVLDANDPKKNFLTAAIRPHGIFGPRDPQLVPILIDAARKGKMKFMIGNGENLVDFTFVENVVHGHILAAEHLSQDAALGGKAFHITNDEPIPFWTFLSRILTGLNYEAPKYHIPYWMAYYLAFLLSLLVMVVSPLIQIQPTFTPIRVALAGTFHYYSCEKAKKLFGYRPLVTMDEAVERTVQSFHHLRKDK
T14 sequence (P45878 23-140): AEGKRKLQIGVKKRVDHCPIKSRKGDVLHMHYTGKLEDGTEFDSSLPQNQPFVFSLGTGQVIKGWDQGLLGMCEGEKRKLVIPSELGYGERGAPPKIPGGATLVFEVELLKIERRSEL
T9 sequence (Q924D0 41-396): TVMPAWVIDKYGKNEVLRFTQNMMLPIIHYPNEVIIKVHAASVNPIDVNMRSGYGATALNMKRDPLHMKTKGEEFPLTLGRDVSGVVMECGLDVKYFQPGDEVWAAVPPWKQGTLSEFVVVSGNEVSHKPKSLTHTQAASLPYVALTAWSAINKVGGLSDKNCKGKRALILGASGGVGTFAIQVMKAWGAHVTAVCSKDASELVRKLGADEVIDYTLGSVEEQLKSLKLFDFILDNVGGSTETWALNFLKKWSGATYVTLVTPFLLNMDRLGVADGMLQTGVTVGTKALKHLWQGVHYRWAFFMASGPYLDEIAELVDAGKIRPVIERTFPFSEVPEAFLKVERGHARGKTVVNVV
T6 sequence (Q8VCB1 whole entry): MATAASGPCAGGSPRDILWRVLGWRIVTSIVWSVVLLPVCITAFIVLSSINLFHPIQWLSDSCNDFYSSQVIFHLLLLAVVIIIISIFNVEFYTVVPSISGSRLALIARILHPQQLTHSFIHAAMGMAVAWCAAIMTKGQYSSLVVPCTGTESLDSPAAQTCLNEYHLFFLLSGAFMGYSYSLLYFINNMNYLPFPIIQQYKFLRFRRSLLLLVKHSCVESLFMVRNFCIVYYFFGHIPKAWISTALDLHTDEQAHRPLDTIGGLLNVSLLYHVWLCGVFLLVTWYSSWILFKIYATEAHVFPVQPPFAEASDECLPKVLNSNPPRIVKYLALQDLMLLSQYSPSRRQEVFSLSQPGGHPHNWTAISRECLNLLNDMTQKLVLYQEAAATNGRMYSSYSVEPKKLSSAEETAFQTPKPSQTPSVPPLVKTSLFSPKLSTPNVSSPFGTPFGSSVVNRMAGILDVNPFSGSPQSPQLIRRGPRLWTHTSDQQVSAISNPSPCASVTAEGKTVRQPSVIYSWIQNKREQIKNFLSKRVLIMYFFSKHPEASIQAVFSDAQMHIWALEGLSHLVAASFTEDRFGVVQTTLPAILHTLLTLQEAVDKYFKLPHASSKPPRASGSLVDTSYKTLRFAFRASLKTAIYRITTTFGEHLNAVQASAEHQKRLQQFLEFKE
T1 sequence (Q9Z0R9 whole entry): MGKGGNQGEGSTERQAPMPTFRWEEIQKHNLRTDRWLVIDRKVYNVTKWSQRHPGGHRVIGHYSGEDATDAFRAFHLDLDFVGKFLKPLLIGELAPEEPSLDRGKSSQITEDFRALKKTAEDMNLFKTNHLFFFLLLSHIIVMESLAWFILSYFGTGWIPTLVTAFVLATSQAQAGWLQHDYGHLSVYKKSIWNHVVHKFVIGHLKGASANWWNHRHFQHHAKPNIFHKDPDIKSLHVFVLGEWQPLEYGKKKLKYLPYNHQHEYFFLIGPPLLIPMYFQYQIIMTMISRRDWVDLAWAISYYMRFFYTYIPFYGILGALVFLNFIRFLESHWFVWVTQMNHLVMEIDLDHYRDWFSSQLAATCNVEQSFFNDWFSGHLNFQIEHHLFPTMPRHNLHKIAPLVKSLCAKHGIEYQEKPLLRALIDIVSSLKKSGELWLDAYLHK
T21 sequence (Q8R0X7 whole entry): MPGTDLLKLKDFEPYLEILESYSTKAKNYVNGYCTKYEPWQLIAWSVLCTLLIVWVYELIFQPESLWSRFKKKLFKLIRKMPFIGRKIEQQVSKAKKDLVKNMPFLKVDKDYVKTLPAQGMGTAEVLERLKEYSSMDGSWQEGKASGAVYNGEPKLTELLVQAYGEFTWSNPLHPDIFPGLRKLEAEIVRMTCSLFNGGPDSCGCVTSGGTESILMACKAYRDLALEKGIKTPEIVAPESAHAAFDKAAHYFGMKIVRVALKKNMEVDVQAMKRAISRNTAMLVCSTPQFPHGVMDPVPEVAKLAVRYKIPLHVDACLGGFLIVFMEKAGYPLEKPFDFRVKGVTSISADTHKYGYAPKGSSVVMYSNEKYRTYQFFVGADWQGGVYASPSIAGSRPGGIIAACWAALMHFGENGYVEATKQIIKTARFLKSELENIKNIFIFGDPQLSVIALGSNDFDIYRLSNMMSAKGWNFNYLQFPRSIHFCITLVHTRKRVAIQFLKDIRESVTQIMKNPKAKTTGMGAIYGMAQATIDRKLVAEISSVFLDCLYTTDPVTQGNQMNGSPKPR
T5 sequence (Q8VCX5 34-477): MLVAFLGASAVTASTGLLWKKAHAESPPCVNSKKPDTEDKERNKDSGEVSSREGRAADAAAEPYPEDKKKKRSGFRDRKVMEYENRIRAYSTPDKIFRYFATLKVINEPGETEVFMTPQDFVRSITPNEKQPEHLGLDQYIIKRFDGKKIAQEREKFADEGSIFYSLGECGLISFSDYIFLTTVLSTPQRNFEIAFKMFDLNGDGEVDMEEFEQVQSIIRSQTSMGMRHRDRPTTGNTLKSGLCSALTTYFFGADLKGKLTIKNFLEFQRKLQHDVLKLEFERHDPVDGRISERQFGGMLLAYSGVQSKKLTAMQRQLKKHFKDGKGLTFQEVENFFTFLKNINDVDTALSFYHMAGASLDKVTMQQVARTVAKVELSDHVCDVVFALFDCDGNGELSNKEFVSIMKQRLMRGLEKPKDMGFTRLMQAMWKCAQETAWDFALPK
T17 sequence (Q91V01 whole entry): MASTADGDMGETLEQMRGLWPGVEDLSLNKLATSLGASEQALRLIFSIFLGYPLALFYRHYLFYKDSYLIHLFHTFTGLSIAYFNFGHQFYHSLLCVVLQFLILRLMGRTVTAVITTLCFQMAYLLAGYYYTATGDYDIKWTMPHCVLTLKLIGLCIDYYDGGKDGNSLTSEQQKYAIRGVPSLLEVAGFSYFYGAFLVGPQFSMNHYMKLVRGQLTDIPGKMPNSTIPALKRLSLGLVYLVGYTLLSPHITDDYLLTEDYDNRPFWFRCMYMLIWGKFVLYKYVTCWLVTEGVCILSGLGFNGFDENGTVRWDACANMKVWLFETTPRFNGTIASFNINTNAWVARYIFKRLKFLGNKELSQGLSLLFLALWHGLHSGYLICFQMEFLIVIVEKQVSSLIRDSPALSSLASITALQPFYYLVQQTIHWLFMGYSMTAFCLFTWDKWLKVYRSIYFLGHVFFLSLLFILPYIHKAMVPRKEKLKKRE
T15 sequence (Q99JY4 whole entry): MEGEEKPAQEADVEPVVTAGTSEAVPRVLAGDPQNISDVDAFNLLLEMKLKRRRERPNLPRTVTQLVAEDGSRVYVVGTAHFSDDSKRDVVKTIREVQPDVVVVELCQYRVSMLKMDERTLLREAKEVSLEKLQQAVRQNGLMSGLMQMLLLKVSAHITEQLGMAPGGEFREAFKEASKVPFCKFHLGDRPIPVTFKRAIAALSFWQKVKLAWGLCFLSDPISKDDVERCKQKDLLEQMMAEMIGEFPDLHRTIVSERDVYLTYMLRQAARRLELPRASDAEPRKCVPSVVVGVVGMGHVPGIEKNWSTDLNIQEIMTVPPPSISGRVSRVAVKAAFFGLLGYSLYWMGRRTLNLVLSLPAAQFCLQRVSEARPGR
T19 sequence (Q60932 whole entry): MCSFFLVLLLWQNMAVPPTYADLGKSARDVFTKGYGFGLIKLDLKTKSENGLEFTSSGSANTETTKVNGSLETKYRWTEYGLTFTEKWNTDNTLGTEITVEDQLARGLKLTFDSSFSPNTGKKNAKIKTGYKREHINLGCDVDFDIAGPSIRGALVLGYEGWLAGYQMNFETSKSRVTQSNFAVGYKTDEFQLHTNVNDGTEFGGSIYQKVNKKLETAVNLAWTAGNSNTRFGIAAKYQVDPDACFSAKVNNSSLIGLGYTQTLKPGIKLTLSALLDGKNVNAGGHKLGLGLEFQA
T13 sequence (Q8BJ03 whole entry): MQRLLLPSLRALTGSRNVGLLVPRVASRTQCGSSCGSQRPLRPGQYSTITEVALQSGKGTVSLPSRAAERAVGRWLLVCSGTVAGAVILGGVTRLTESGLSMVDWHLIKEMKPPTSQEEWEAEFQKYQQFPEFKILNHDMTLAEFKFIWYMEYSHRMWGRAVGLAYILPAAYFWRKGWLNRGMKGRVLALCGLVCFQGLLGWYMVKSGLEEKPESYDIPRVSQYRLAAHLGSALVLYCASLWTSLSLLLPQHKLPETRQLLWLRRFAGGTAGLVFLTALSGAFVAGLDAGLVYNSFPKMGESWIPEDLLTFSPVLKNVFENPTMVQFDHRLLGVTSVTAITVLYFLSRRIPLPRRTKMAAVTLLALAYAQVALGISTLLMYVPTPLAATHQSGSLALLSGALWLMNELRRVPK
T3 sequence (Q91VM5 whole entry): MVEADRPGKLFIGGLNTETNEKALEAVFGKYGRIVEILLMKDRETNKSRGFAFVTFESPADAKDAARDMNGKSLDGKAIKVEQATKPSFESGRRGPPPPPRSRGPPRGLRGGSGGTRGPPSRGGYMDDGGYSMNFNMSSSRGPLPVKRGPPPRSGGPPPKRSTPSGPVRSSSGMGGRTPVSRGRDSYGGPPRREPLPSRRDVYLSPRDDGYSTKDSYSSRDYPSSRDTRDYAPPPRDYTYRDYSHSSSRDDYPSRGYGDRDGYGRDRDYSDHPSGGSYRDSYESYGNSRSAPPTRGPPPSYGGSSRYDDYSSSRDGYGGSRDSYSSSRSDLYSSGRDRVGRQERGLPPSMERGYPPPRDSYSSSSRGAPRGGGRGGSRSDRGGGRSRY

## C#CCCCC1(CC/C=C\C/C=C\C/C=C\CCCC(=O)NCCO)N=N1 [AEA-DA, (5Z,8Z,11Z)-N-(2-hydroxyethyl)-14-(3-(pent-4-yn-1-yl)-3H-diazirin-3-yl)tetradeca-5,8,11-trienamide]
[1]
  SILAC ratio, FADS2 (Q9Z0R9): 10.5
[2]
  SILAC ratio, AEA-DA probe versus No UV: 20.0
[3]
  SILAC ratio, AEA-DA probe versus No UV: 6.0
[4]
  SILAC ratio, EMD (O08579): 20.0
[5]
  SILAC ratio, AEA-DA probe versus No UV: 20.0
[6]
  SILAC ratio, TMEM48 (Q8VCB1): 14.5
[7]
  SILAC ratio, PSAP (P07602): 20.0
[8]
  SILAC ratio, DCAKD (Q8BHC4): 9.0
[9]
  SILAC ratio, AEA-DA probe versus No UV: 15.1
[10]
  SILAC ratio, MARCH5 (Q3KNM2): 20.0
[11]
  SILAC ratio, TIMM22 (Q9CQ85): 13.6
[12]
  SILAC ratio, HSD17B12 (Q53GQ0): 15.3
[13]
  SILAC ratio, AEA-DA probe versus No UV: 12.3
[14]
  SILAC ratio, AEA-DA probe versus No UV: 5.6
[15]
  SILAC ratio, TRABD (Q99JY4): 12.0
[16]
  SILAC ratio, AEA-DA probe versus No UV: 11.6
[17]
  SILAC ratio, LPCAT3 (Q6P1A2): 18.7
[18]
  SILAC ratio, OPA3 (Q505D7): 20.0
[19]
  SILAC ratio, VDAC1 (P21796): 20.0
[20]
  SILAC ratio, NSDHL (Q15738): 9.4
[21]
  SILAC ratio, SGPL1 (O95470): 20.0
[22]
  SILAC ratio, CERS2 (Q924Z4): 17.1
